The source made the active and inactive calls. The rule behind the calls is not given here.
test system: PC-12; experiment: Neuroprotective activity against glutamate-induced apoptotic cell death in rat PC12 cells assessed as decrease in caspase-3 level at 10 to 40 uM measured after 24 hrs; type: functional, cell-based

How did the Activity turn out when CC(=O)OC[C@@H]1[C@H]2C[C@H]2[C@]2(C)C=C3OC(=O)C(CO)=C3C[C@@H]12 was run?
Its Activity is “Active”.

test system: PC-12; experiment: Neuroprotective activity against glutamate-induced neuronal cell death in rat PC12 cells assessed as increase in cell viability pretreated for 2 hrs followed by glutamate challenge measured after 24 hrs by MTT assay; type: functional, cell-based

How did the EC50 turn out when C=C1CCC[C@]2(C)C(=O)c3occ(C)c3C[C@@H]12 was run?
The EC50 was 119 µM.

How did the EC50 turn out when CC(=O)CCc1c(C)ccc2c1C(=O)OC2(C)C was run?
Its EC50 is 93.1 µM.

With Cc1coc2c1C(=O)[C@H]1[C@@](C)(O)CCC(=O)[C@]1(C)C2 as the compound, how does the Activity read?
Its Activity is “inactive”.

How did the EC50 turn out when C=C[C@]1(C)C[C@@H]2OC(=O)C(C)=C2C[C@H]1C(=C)C [ISOGERMAFURENOLIDE] was run?
Its EC50 is 24.3 µM.

How did the Activity turn out when CC1=C2C[C@@H]3[C@@](C)(C=C2OC1=O)CCC[C@@]3(C)O was run?
Its Activity is “inactive”.

C=C1CC[C@@H]2C(=C)C[C@@]3(O)OC(=O)C(C)=C3[C@@]2(O)C1 was tested. Which EC50 did it give?
The EC50 was 15.2 µM.

How did the EC50 turn out when CC(=O)OC[C@@H]1[C@H]2C[C@H]2[C@]2(C)C=C3OC(=O)C(CO)=C3C[C@@H]12 was run?
The EC50 was 3.3 µM.

Which EC50 does the source give for Cc1coc2c1C(=O)[C@H]1[C@@H](C)CC[C@H](O)[C@]1(C)C2=O here?
The EC50 was 51.4 µM.

Cc1coc2c1C(=O)[C@@H]1[C@@](C)(C2)[C@H](O)CC[C@@]1(C)O was tested. Which Activity did it give?
The Activity was “inactive”.

CC(=O)OC[C@@H]1[C@H]2C[C@H]2[C@]2(C)C=C3OC(=O)C(C)=C3C[C@@H]12 was tested. Which Activity did it give?
Its Activity is “inactive”.

With CC1=C(C[C@@H]2OC(=O)[C@@H](C)CC/C=C\2C)C(=O)OC1 as the compound, how does the Activity read?
Its Activity is “inactive”.

With C=C(C)[C@@H]1CC[C@]2(C)C(=C(C)C(=O)C[C@H]2O)C1 as the compound, how does the Activity read?
The Activity was “inactive”.

For Cc1coc2c1C(=O)[C@H]1O[C@]1(C)CC[C@@H](O)[C@](C)(O)C2, which EC50 is on record?
Its EC50 is 70.3 µM.

How did the EC50 turn out when CC1=C2C(=O)c3c(C)coc3C[C@@]2(C)C=CC1=O was run?
The EC50 was 106 µM.

How did the Activity turn out when C=C1[C@H](O)CC[C@@]2(C)C[C@@]3(O)OC(=O)C(C)=C3C[C@H]12 was run?
Its Activity is “inactive”.

Which Activity does the source give for CC1=C2C(=O)c3c(C)coc3C(=O)[C@@]2(C)[C@@H](O)CC1 here?
Its Activity is “inactive”.

Which results are given for C=C1CCC[C@]2(C)C[C@]3(O)OC(=O)C(C)=C3C[C@@H]12 [ATRACTYLENOLIDE III]?
Activity: inactive; EC50: 36.3 µM

CC1=C2C[C@@]3(C)[C@H](C[C@H]2OC1=O)C(=O)CC[C@@H]3C was tested. Which Activity did it give?
Its Activity is “inactive”.

With Cc1coc2c1C(=O)[C@@H]1[C@@](C)(C2)C(=O)CC[C@@]1(C)O as the compound, how does the EC50 read?
Its EC50 is 107 µM.

Which Activity does the source give for CC1=C2C(=O)c3c(C)coc3[C@@H](O)[C@]2(C)[C@@H](O)CC1 here?
Its Activity is “inactive”.

With C=C1CCC[C@]2(C)C=C3OC(=O)C(C)=C3C[C@@H]12 as the compound, how does the Activity read?
Its Activity is “inactive”.

With CC1=C2C[C@@]3(C)[C@H](C[C@@]2(O)OC1=O)C(=O)CC[C@@H]3C as the compound, how does the Activity read?
Its Activity is “inactive”.

How did the Activity turn out when C=C1CCC[C@]2(C)C=C3OC(=O)C(C)=C3[C@H](O)[C@@H]12 was run?
Its Activity is “inactive”.

How did the EC50 turn out when CC1=C2C(=O)[C@@](O)(C(C)C)CC[C@@]2(C)CCC1=O was run?
Its EC50 is 132 µM.

With Cc1coc2c1C(=O)[C@H]1[C@](C)(C2=O)[C@@H](O)CC[C@@]1(C)O as the compound, how does the Activity read?
The Activity was “inactive”.

COCCOC(=O)C1=C(C)NC(C)=C(C(=O)OC(C)C)C1c1cccc([N+](=O)[O-])c1 (centres undefined) [NIMODIPINE] was tested. Which EC50 did it give?
The EC50 was 97.3 µM.

Which Activity does the source give for CC1=C2C[C@@H]3[C@](C)(CCC[C@]3(C)O)C[C@]2(O)OC1=O here?
Its Activity is “inactive”.

Which Activity does the source give for Cc1coc2c1C[C@@H]1[C@](C)(CCC[C@@]1(C)O)C2 here?
The Activity was “inactive”.

Which EC50 does the source give for C=C1[C@H]2C[C@H]2[C@]2(COC(C)=O)C[C@@H]3OC(=O)C(C)=C3C[C@@H]12 here?
The EC50 was 89.5 µM.

For CC1=C2C(=O)[C@@](O)(C(C)C)CC[C@]2(C)CCC1, which Activity is on record?
The Activity was “inactive”.

test system: PC-12; experiment: Neuroprotective activity against glutamate-induced apoptotic cell death in rat PC12 cells assessed as apoptotic neurons at 10 to 40 uM pretreated with compound followed by glutamate challenge measured after 24 hrs by Hoechst 33258 staining based assay (reference value: 65.5%); type: functional

For CC(=O)OC[C@@H]1[C@H]2C[C@H]2[C@]2(C)C=C3OC(=O)C(CO)=C3C[C@@H]12, which Activity is on record?
The Activity was 7.2 - 23.7%.

molecular target: RAC-alpha serine/threonine-protein kinase (Rattus norvegicus) (UniProt P47196); experiment: Increase in Akt phosphorylation in glutamate-induced rat PC12 cells at 10 to 40 uM measured after 24 hrs by Western blot analysis
Sequence (P47196 whole entry): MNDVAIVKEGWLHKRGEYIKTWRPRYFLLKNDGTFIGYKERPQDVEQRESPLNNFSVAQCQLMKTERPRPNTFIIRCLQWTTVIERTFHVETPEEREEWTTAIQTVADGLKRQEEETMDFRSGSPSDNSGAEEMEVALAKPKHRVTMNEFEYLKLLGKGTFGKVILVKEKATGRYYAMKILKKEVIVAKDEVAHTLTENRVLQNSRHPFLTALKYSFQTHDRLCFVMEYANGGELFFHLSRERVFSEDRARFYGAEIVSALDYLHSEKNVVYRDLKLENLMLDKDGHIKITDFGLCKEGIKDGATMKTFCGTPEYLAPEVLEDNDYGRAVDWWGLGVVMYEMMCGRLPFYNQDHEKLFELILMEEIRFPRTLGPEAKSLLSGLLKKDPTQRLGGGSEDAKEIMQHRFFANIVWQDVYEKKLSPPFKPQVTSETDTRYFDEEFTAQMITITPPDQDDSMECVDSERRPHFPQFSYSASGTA

With CC(=O)OC[C@@H]1[C@H]2C[C@H]2[C@]2(C)C=C3OC(=O)C(CO)=C3C[C@@H]12 as the compound, how does the Activity read?
Its Activity is “Active”.

Source: ChEMBL document CHEMBL4145580, “Sesquiterpenoids from Chloranthus anhuiensis with Neuroprotective Effects in PC12 Cells” (J Nat Prod, 2018)
